Experimental data: PMC4890880 (ACS infectious diseases, 2016)
Where two headings read alike, the source gives them in different places.

Experiments:
[1] = system: HepG2-A16-CD81EGFP cells; test: cells; conditions: Homo sapiens; for IC50: HepG2, read-out: Tox IC50; for inhibition at 50 µM: HepG2, read-out: Tox max inhibition (%) @ 50 uM
[2] = system: Plasmodium berghei (Pb-Luc) exoerythrocytic-stage parasites; test: microbe, parasite or virus in culture
[3] = HepG2, read-out: HepG2 Tox% @ 50 uM rep1
[4] = HepG2, read-out: HepG2 Tox% @ 50 uM rep2
[5] = read-out: Inhibition% @ 50 uM rep1
[6] = read-out: Inhibition% @ 50 uM rep2
[7] = read-out: PbLuc IC50, dose response, 1/3 dilutions, max conc. 10 or 50 uM, unit inferred
[8] = read-out: PbLuc max inhibition (%) @ 50 uM

Compound | cytotoxicity at 50 µM [1, 3] [%] | cytotoxicity at 50 µM [1, 4] [%] | inhibition at 50 µM [2, 5] [%] | inhibition at 50 µM [2, 6] [%] | IC50 [1] [µM] | inhibition at 50 µM [1] [%] | IC50 [2, 7] [µM] | inhibition at 50 µM [2, 8] [%] | IC50 ([2]; read-out: PbLuc IC50) [µM]
O=C(NCc1ccco1)C1CCN(S(=O)(=O)c2ccc(Br)cc2)CC1 [MMV007430] | 28 | 34 | 103 | 105 | – | – | – | – | –
Cc1ccc(CSCc2ccc(C(=O)NC3CC3)o2)cc1 [MMV007571] | 66 | 74 | 103 | 103 | – | – | – | – | –
COc1ccc(C(=O)C(CCC(CNC(C)(C)C)C(=O)c2ccc(OC)cc2)CNC(C)(C)C)cc1 (stereo not drawn) [MMV007591] | 101 | – | 103 | 104 | 25.3 | 92 | 7.2 | 99 | –
CC(=O)NCCc1nc2ccccc2n1Cc1ccc(C(C)C)cc1 [MMV007617] | 81 | 80 | 104 | 106 | – | – | – | – | –
Cc1ccc(C)c(-c2csc(Nc3ccc(C)c(C)c3)n2)c1 [MMV007654] | -26 | – | -107 | -33 | – | – | – | – | –
COc1ccc2c(c1)OC(O)(C(F)(F)C(F)(F)F)CC2=O (stereo not drawn) [MMV007839] | 96 | 96 | 102 | 98 | – | – | – | – | –
Cc1ccc(Nc2nc(-c3ccccn3)cs2)cc1 [MMV007907] | 93 | 96 | 103 | 106 | – | – | – | – | –
O=C(O)C1Cc2c([nH]c3ccccc23)C(c2ccc(Cl)cc2Cl)N1 (stereo not drawn) [MMV008138] | 49 | 53 | 88 | 91 | – | – | – | – | –
COC(=O)c1ccc(C2C3=C(O)CC(c4ccc(F)cc4)CC3=Nc3ccccc3N2C(=O)c2ccccc2)cc1 (stereo not drawn) [MMV011438] | -12 | – | 98 | 96 | > 50 | 8 | 3.16 | 97 | –
Cc1ccc(Nc2nc(N)c3ccccc3n2)cc1Cl [MMV011522] | 97 | – | 100 | 99 | – | – | – | – | –
Nc1ccc(-c2nc3cc(Oc4ccc(Oc5ccc6[nH]c(-c7ccc(N)cc7)nc6c5)cc4)ccc3[nH]2)cc1 [MMV011895] | 97 | – | 98 | 99 | 12.8 | 100 | 6.98 | 99 | –
O=C(Nc1ccc(-c2nc3cc4ccccc4cc3[nH]2)cc1)c1cccc(Br)c1 [MMV019241] | 41 | – | 91 | 91 | – | – | – | – | –
Cc1sc2ncnc(Sc3nc4ccccc4[nH]3)c2c1C [MMV019266] | 31 | 47 | 98 | 102 | > 50 | 28 | 0.53 | 101 | –
c1ccc2c(NCCCCCCNc3c4c(nc5ccccc35)CCCC4)c3c(nc2c1)CCCC3 [MMV019555] | 100 | – | 104 | 104 | 14.5 | 101 | – | 100 | 1.39
COc1ccc(C2NCCc3c2[nH]c2ccccc32)cc1CN1CCN(c2ccc(F)cc2)CC1 (stereo not drawn) [MMV019690] | 101 | – | 103 | 103 | 10.8 | 100 | 6.28 | 99 | –
Cc1[nH]c(-c2ccc(F)cc2)cc1C(=O)NC1CCN(Cc2ccccc2)CC1 [MMV019738] | 97 | 98 | 103 | 102 | – | – | – | – | –
Cc1ccc(C)c(Cn2c(N3CCC(C(=O)NCc4cccs4)CC3)nc3ccccc32)c1 [MMV019741] | 98 | – | 103 | 104 | – | – | – | – | –
Cc1ccc(Cl)cc1N1CCN(CCCNC(=O)C2CCN(c3nc4ccccc4[nH]3)CC2)CC1 [MMV019746] | 100 | 101 | 103 | 105 | – | – | – | – | –
Cc1cc(C)c2nc(N3CCC(C(=O)NCCCN4CCC(N5CCCCC5)CC4)CC3)sc2c1 [MMV019780] | 98 | 98 | 101 | 101 | – | – | – | – | –
O=C(NC1CCN(Cc2ccccc2)CC1)c1cc(C(=O)NC2CCN(Cc3ccccc3)CC2)cc(C(=O)NC2CCN(Cc3ccccc3)CC2)c1 [MMV019881] | 101 | – | 104 | 104 | > 50 | 60 | 14.7 | 94 | –
Clc1cc(Br)ccc1-c1ccc(CNCC2CCNCC2)o1 [MMV019918] | 97 | 99 | 103 | 105 | 15.6 | 100 | 8.14 | 99 | –

Compound | cytotoxicity at 50 µM [1, 3] [%] | cytotoxicity at 50 µM [1, 4] [%] | inhibition at 50 µM [2, 5] [%] | inhibition at 50 µM [2, 6] [%] | IC50 [1] [µM] | inhibition at 50 µM [1] [%] | IC50 [2, 7] [µM] | inhibition at 50 µM [2, 8] [%] | IC50 ([2]; read-out: PbLuc IC50) [µM]
O=C(NCCCN1CCC(N2CCCCC2)CC1)C1=Cc2cc(Br)ccc2OC1 [MMV019995] | 100 | – | 102 | 102 | – | – | – | – | –
Cc1cc(N(C)C)nc(Nc2ccc(NC(=O)Nc3ccccc3)cc2)n1 [MMV020243] | 96 | – | 96 | 99 | 15.7 | 100 | 1.45 | 100 | –
Cc1ccc(-c2nc3ccccc3o2)cc1NCc1cc(Cc2ccccc2)ccc1O [MMV020912] | 13 | – | 75 | 76 | – | – | – | – | –
COc1cc2c(cc1OC)C1=NNC(=O)C1=NC(C)(C)C2 [MMV084940] | 99 | 100 | 103 | 102 | 31.3 | 94 | 4.02 | 99 | –
COc1ccccc1N=C1C(=O)c2ccccc2C(O)=C1N1CCCCC1 [MMV085203] | 94 | 97 | 103 | 105 | 3.13 | 96 | 0.564 | 100 | –
Cc1ccc(C(=O)c2oc3ccc4c(C)cc(=O)oc4c3c2C)cc1 [MMV086103] | 40 | – | 103 | 103 | – | – | – | – | –
CC(C)(C)c1ccc(C(=O)Nc2nc3ccccc3s2)cc1 [MMV142383] | 89 | 96 | 103 | 105 | – | – | – | – | –
COc1ccc2nc(C)cc(Nc3ccccc3O)c2c1 [MMV274073] | 59 | 88 | 100 | 100 | – | – | – | – | –
CCn1nc(-c2ccc(C(=O)OC)cc2)nc2c(=O)n(C)c(=O)nc1-2 [MMV306025] | 99 | 101 | 104 | 105 | – | – | – | – | –
CCOc1c(Cl)cc(CNCC(O)c2ccccc2)cc1OC (stereo not drawn) [MMV396632] | 82 | 76 | 99 | 96 | – | – | – | – | –
CCOc1cc(CNC(C)C(O)c2ccccc2)cc(Cl)c1OCC (stereo not drawn) [MMV396633] | 98 | 99 | 101 | 102 | – | – | – | – | –
Cc1sc(NC(=O)c2ccco2)c(C(c2cccnc2)N2CCC(Cc3ccccc3)CC2)c1C (stereo not drawn) [MMV396663] | 82 | – | 103 | 103 | – | – | – | – | –
CCOC(=O)c1c(C)n(-c2ccccc2)c2ccc(OC(=O)c3cc(OC)c(OC)c(OC)c3)cc12 [MMV396664] | 61 | – | 100 | 101 | – | – | – | – | –
COc1cc(C(=O)Nc2nc3c(cc4c5c(cccc53)CC4)s2)cc(OC)c1OC [MMV396665] | 11 | – | 76 | 80 | – | – | – | – | –
O=C(NCC(c1ccsc1)N1CCCCCC1)c1ccc(C(F)(F)F)cc1 (stereo not drawn) [MMV396672] | 98 | 99 | 104 | 104 | – | – | – | – | –
O=C(CSc1nccn2nc(-c3ccccc3)cc12)Nc1cc(C(F)(F)F)ccc1Cl [MMV396678] | -13 | -3 | 68 | 82 | – | – | – | – | –
C[n+]1c2ccccc2nc2ccc(NCCO)cc21 [MMV396693] | 81 | 93 | 102 | 104 | – | – | – | – | –
CCN(CC)CCNc1ncnc2c1[nH]c1ccc(Cl)cc12 [MMV396703] | 95 | 98 | 103 | 106 | – | – | – | – | –
CN1CCN(c2ncnc3c2[nH]c2ccc(Cl)cc23)CC1 [MMV396704] | 32 | – | 99 | 101 | – | – | – | – | –
COc1cccc(Cn2c(Oc3ccccc3)nc3c2c(=O)n(C)c(=O)n3C)c1 [MMV396705] | 47 | – | 99 | 99 | – | – | – | – | –
COc1ccc(CCN2C(=O)c3[nH]nc(-c4cc(Cl)c(C)cc4O)c3C2c2ccccc2F)cc1 (stereo not drawn) [MMV396717] | 97 | – | 101 | 101 | – | – | – | – | –
